Results as given in ChEMBL document CHEMBL2412957, “Synthesis and SAR of 4-aminocyclopentapyrrolidines as orally active N-type calcium channel inhibitors for inflammatory and neuropathic pain” (Bioorg Med Chem Lett, 2013).
In brackets after ≈: the same amount, converted by molar mass.

test system: not listed separately; assay: Oral bioavailability in rat at 30 umol/kg; assay type: ADME, organism-based; details: in vivo, 30 umol/kg

SMILES	bioavailability
CC(C)C[C@@H](C(=O)N[C@@H]1CC[C@H]2CN(S(=O)(=O)c3cccc(C(F)(F)F)c3)C[C@H]21)N(C)C	0.8%
CN[C@@H](CC(C)C)C(=O)N[C@@H]1CC[C@H]2CN(S(=O)(=O)c3cccc(C(F)(F)F)c3)C[C@H]21	10.5%

test system: not listed separately; assay: Plasma clearance in rat at 5 umol/kg, iv and 30 umol/kg, po; assay type: ADME, organism-based; details: plasma

SMILES	clearance
CC(C)C[C@@H](C(=O)N[C@@H]1CC[C@H]2CN(S(=O)(=O)c3cccc(C(F)(F)F)c3)C[C@H]21)N(C)C	56.7 mL/min/kg
CN[C@@H](CC(C)C)C(=O)N[C@@H]1CC[C@H]2CN(S(=O)(=O)c3cccc(C(F)(F)F)c3)C[C@H]21	60 mL/min/kg

test system: not listed separately; assay: Half life in rat at 5 umol/kg, iv and 30 umol/kg, po; assay type: ADME, organism-based; details: in vivo

SMILES	half-life
CC(C)C[C@@H](C(=O)N[C@@H]1CC[C@H]2CN(S(=O)(=O)c3cccc(C(F)(F)F)c3)C[C@H]21)N(C)C	1.4 h
CN[C@@H](CC(C)C)C(=O)N[C@@H]1CC[C@H]2CN(S(=O)(=O)c3cccc(C(F)(F)F)c3)C[C@H]21	2 h

biological target: Voltage-dependent N-type calcium channel subunit alpha-1B (Homo sapiens, UniProt Q00975); assay: Inhibition of N-type Cav2.2 channel (unknown origin) by FLIPR assay; details: read-out: IC50
Sequence (Q00975 whole entry): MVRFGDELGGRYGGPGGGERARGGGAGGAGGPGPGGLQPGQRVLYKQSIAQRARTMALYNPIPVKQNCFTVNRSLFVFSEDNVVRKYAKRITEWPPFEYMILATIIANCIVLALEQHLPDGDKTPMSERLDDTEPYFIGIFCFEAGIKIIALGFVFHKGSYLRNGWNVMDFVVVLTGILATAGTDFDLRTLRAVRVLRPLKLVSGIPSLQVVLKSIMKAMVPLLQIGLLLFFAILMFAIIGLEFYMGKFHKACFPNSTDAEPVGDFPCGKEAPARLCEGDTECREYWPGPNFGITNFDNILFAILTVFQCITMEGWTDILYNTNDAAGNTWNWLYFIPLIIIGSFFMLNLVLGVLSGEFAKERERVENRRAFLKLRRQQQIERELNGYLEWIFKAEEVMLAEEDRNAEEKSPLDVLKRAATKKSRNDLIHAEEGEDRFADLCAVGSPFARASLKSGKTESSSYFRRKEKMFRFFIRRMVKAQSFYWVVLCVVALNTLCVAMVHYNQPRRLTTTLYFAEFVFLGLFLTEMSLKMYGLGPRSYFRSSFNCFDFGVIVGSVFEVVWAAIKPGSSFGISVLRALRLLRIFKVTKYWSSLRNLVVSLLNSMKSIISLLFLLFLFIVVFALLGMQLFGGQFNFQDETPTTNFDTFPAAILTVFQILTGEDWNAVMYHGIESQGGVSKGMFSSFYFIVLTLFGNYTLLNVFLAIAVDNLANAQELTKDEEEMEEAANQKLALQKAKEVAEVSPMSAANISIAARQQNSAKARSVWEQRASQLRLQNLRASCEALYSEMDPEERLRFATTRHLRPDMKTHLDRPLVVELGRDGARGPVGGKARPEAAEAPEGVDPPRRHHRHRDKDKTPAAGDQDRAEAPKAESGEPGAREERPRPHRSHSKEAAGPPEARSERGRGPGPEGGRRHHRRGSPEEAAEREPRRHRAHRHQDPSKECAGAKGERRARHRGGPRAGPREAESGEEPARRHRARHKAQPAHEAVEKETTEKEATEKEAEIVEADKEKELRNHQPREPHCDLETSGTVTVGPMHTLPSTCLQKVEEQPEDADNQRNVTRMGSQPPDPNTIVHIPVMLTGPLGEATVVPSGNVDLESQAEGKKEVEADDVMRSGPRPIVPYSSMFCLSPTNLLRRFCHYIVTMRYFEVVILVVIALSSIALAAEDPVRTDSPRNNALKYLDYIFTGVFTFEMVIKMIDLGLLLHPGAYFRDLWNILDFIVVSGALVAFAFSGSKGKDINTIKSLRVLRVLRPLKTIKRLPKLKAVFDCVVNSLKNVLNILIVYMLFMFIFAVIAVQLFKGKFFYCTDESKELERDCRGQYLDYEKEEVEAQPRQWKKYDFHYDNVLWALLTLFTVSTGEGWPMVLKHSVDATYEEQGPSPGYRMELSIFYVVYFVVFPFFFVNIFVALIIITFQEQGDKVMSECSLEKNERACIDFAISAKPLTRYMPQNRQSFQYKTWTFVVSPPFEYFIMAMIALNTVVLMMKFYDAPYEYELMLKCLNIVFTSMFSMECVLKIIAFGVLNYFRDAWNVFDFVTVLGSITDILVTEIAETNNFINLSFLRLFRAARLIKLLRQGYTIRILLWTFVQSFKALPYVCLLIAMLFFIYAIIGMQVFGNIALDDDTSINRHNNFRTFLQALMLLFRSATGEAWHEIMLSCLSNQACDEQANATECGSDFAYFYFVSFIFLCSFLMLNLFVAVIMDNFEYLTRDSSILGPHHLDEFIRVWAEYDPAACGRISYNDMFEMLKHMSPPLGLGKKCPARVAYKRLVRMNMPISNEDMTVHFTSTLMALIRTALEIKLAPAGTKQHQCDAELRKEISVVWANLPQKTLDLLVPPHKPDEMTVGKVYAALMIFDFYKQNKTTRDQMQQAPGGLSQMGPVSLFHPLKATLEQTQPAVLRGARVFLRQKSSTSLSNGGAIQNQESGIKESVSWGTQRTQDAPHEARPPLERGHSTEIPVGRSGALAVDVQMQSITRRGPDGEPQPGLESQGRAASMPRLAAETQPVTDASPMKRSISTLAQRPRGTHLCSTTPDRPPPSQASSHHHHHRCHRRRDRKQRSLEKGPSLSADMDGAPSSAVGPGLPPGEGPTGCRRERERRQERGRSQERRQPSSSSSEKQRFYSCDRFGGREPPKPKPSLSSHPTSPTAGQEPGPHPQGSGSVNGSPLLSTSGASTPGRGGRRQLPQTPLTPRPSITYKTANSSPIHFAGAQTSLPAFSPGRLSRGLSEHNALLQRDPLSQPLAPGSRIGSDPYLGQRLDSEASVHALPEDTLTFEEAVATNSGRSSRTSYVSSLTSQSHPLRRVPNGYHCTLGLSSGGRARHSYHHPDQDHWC

SMILES	IC50
CN[C@@H](CC(C)C)C(=O)N[C@H]1CC[C@@H]2CN(c3ccc(OC(F)(F)F)cc3)C[C@@H]21	5.15 µM
CCC[C@H](NC)C(=O)N[C@H]1CC[C@@H]2CN(S(=O)(=O)c3ccc(C(F)(F)F)cc3)C[C@@H]21	0.96 µM
CC(C)C[C@H](NS(C)(=O)=O)C(=O)N[C@@H]1CC[C@H]2CN(Cc3cccc(C(F)(F)F)c3)C[C@H]21	2.84 µM
CC(C)C[C@@H](C(=O)N[C@@H]1CC[C@H]2CN(S(=O)(=O)c3cccc(C(F)(F)F)c3)C[C@H]21)N(C)C	0.45 µM
CN[C@@H](CC(C)C)C(=O)N[C@@H]1CC[C@H]2CN(S(=O)(=O)c3cccc(C(F)(F)F)c3)C[C@H]21	0.52 µM

same assay, conditions: read-out: pIC50 (converted)

SMILES	IC50
CN[C@@H](CC(C)C)C(=O)N[C@@H]1CC[C@H]2CN(S(=O)(=O)c3cccc(C(F)(F)F)c3)C[C@H]21	0.631 µM

test system: not listed separately; assay: AUC in rat at 30 umol/kg, po; assay type: ADME, organism-based, Plasma; details: plasma, 30 umol/kg

SMILES	AUC
CC(C)C[C@@H](C(=O)N[C@@H]1CC[C@H]2CN(S(=O)(=O)c3cccc(C(F)(F)F)c3)C[C@H]21)N(C)C	35 ng·h/mL
CN[C@@H](CC(C)C)C(=O)N[C@@H]1CC[C@H]2CN(S(=O)(=O)c3cccc(C(F)(F)F)c3)C[C@H]21	405 ng·h/mL

test system: not listed separately; assay: Solubility of the compound by chemiluminescent nitrogen detection method; details: not given

SMILES	solubility
CN[C@@H](CC(C)C)C(=O)N[C@H]1CC[C@@H]2CN(c3ccc(OC(F)(F)F)cc3)C[C@@H]21	31 µM (≈ 12.8 µg/mL)
CCC[C@H](NC)C(=O)N[C@H]1CC[C@@H]2CN(S(=O)(=O)c3ccc(C(F)(F)F)cc3)C[C@@H]21	97 µM (≈ 43.4 µg/mL)
CC(C)C[C@H](NS(C)(=O)=O)C(=O)N[C@@H]1CC[C@H]2CN(Cc3cccc(C(F)(F)F)c3)C[C@H]21	80 µM (≈ 38 µg/mL)
CC(C)C[C@@H](C(=O)N[C@@H]1CC[C@H]2CN(S(=O)(=O)c3cccc(C(F)(F)F)c3)C[C@H]21)N(C)C	79 µM (≈ 37.6 µg/mL)
CN[C@@H](CC(C)C)C(=O)N[C@@H]1CC[C@H]2CN(S(=O)(=O)c3cccc(C(F)(F)F)c3)C[C@H]21	75 µM (≈ 34.6 µg/mL)

test system: not listed separately; assay: Metabolic stability in human liver microsomes assessed as compound remaining after 30 mins; assay type: ADME, Microsome; details: read-out: Stability

SMILES	remaining at 0.5 h
CN[C@@H](CC(C)C)C(=O)N[C@H]1CC[C@@H]2CN(c3ccc(OC(F)(F)F)cc3)C[C@@H]21	> 85%
CCC[C@H](NC)C(=O)N[C@H]1CC[C@@H]2CN(S(=O)(=O)c3ccc(C(F)(F)F)cc3)C[C@@H]21	74.6%
CC(C)C[C@H](NS(C)(=O)=O)C(=O)N[C@@H]1CC[C@H]2CN(Cc3cccc(C(F)(F)F)c3)C[C@H]21	23.6%
CC(C)C[C@@H](C(=O)N[C@@H]1CC[C@H]2CN(S(=O)(=O)c3cccc(C(F)(F)F)c3)C[C@H]21)N(C)C	0.1%
CN[C@@H](CC(C)C)C(=O)N[C@@H]1CC[C@H]2CN(S(=O)(=O)c3cccc(C(F)(F)F)c3)C[C@H]21	25.5%

test system: not listed separately; assay: Volume of distribution at steady state in rat at 5 umol/kg, iv and 30 umol/kg, po; assay type: ADME, organism-based; details: in vivo, read-out: Vdss

SMILES	Vd
CC(C)C[C@@H](C(=O)N[C@@H]1CC[C@H]2CN(S(=O)(=O)c3cccc(C(F)(F)F)c3)C[C@H]21)N(C)C	5.2 L/kg
CN[C@@H](CC(C)C)C(=O)N[C@@H]1CC[C@H]2CN(S(=O)(=O)c3cccc(C(F)(F)F)c3)C[C@H]21	9.2 L/kg

test system: not listed separately; assay: Metabolic stability in rat liver microsomes assessed as compound remaining after 30 mins; assay type: ADME, Microsome; details: read-out: Stability

SMILES	remaining at 0.5 h
CN[C@@H](CC(C)C)C(=O)N[C@H]1CC[C@@H]2CN(c3ccc(OC(F)(F)F)cc3)C[C@@H]21	66%
CCC[C@H](NC)C(=O)N[C@H]1CC[C@@H]2CN(S(=O)(=O)c3ccc(C(F)(F)F)cc3)C[C@@H]21	83.4%
CC(C)C[C@H](NS(C)(=O)=O)C(=O)N[C@@H]1CC[C@H]2CN(Cc3cccc(C(F)(F)F)c3)C[C@H]21	42.1%
CC(C)C[C@@H](C(=O)N[C@@H]1CC[C@H]2CN(S(=O)(=O)c3cccc(C(F)(F)F)c3)C[C@H]21)N(C)C	1%
CN[C@@H](CC(C)C)C(=O)N[C@@H]1CC[C@H]2CN(S(=O)(=O)c3cccc(C(F)(F)F)c3)C[C@H]21	26.5%
